Results on 21 compounds are retold here after US20250257361A1, “COMPOSITIONS AND METHODS FOR TREATING LIVER DISEASES WITH SIRNAS TARGETING SMYD2” (The Board of Regents of The University of Texas System, priority 2022, published 2025).

One data set has as its target SMYD2 (Homo sapiens, UniProt Q9NRG4). The conditions noted are these: cited from earlier work.
For another data set, the system named is WD NASH model. As to the method:
FIG. 6A. Experimental design for pre-clinical testing of AZ505 in the WD NASH model. WD was given at 8 weeks of age for a total of 2 months. AZ505 treatment started one day after WD was initiated. Vehicle (2.5% DMSO in saline) or AZ505 (10 mg/kg in saline containing 2.5% DMSO) was given to mice intraperitoneally 3 times per week. FIG. 6B. Body weight of vehicle or AZ505 treated mice before and after 2 months of WD (n=15 and 14 mice). FIGS. 6C-6D. Liver weight and liver/body weight ratios of vehicle or AZ505 treated mice after 2 months of WD (n=15 and 14). FIG. 6E. Representative liver pictures and H&E staining of liver sections for vehicle or AZ505 treated mice after 2 months of WD. FIGS. 6F-6G. Liver function analysis using plasma ALT and AST (n=15 and 14). FIGS. 6H-6I. Liver triglyceride and cholesterol analysis (n=15 and 14). FIGS. 6J-6K. Plasma triglyceride and cholesterol analysis (n=15 and 14).
In order to determine if chemical SMYD2 inhibition could serve as orthogonal validation of the genetic findings, and to investigate the therapeutic potential of SMYD2 blockade in fatty liver disease, AZ505 was used. […] WD was fed to WT mice at 8 weeks of age, followed by treatment with vehicle control or AZ505 with a dose of 10 mg/kg (intraperitoneal injection) three times per week (FIG. 6A).
All mice were handled in accordance with the guidelines of the Institutional Animal Care and Use Committee at UT Southwestern. All experiments were done in an age and sex controlled fashion unless otherwise noted. C57BL/6 strain background mice were used for all the experiments. LSL-tdTomato (strain #007914) and Rosa-rtTA; TetO-Cas9 mice (#029415) were obtained from The Jackson Laboratory. Mice homozygous for both Rosa-rtTA and TetO-Cas9 were used to ensure a high Cas9 expression level in the liver. Western Diet (WD) used for NASH modeling is described in (Tsuchida et al., 2018). It is composed of high fat solid food (ENVIGO #TD.120528) and high sugar water containing 23.1 g/L d-fructose (Sigma-Aldrich #F0127) and 18.9 g/L d-glucose (Sigma-Aldrich #G8270).
Liver pieces were fixed in buffered formalin (Fisherbrand #245-685) for 24 h with gentle shaking at 4° C. and then transferred to 70% EtOH for another 24 h with shaking at 4° C. Paraffin embedding, liver sectioning (4 μm thickness), and H&E staining were performed at the UT Southwestern Tissue Management Shared Resource Core. For IHC staining, the following primary antibodies were used: Pten (CST #9559, IHC 1:200); Ki67 (Abcam #AB15580, IHC 1:200). IHC). IHC was performed as previously described (Zhu et al., 2010). TUNEL staining was performed on paraffin embedded liver sections using In Situ Cell Death Detection Kit, Fluorescein (Roche #C755B40) according to the manufacturer's protocol. QuPath software (https://qupath.github.io/) was used to quantify Ki67 and TUNEL staining.
The supernatant after centrifugation (plasma) was analyzed for AST, ALT, cholesterol, and triglyceride using VITROS MicroSlide Technology at the UT Southwestern Metabolic Phenotyping Core. 100-150 mg of liver per sample was weighted and used for lipid extraction and quantification at the UT Southwestern Metabolic Phenotyping Core.

Another data set has as its system human SMYD2. The experiment in a line: SMYD2 luciferase reporter assay (dual Renilla/Firefly) for siRNA knockdown in Cos7 cells. The format is cell-based. The conditions noted are these: psiCheck2 human Smyd2 luciferase reporter and siRNA co-transfected, 24 h, triplicates (Table 2; text says 48 hours). (A reporter such as luciferase makes a cellular process visible.)

The mark [1] stands for this setting: AZ505 10 mg/kg i.p. 3 times per week vs. vehicle, 2 months WD.

pIC50: −log10 of the molar value.

SMYD2, sequence (Q9NRG4 whole entry, species assumed): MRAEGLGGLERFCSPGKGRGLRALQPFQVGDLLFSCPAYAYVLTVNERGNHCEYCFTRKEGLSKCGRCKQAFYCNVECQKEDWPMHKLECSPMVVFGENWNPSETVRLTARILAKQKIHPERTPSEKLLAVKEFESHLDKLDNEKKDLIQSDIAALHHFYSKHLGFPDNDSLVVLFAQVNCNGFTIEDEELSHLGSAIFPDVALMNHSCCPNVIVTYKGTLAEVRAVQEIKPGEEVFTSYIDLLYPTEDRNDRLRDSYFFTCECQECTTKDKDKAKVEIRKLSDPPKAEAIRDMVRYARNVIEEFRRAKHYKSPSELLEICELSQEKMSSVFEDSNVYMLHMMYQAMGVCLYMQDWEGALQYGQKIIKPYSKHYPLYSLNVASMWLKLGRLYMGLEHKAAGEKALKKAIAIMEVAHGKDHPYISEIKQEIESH

`O=C1COc2c(CCNCCN(C(=O)CCNCCc3ccc(Cl)c(Cl)c3)C3CCCCC3)ccc(O)c2N1` [AZ505]: the negative-log IC50 (pIC50) on SMYD2 (SMYD2) is 6.92. The “selectivity for SMYD2” value on SMYD2 is given as more than 600 fold. Besides, in the data set on WD NASH model (setting [1]), the body weight entry is “significant reductions”; the liver appearance entry was “Smaller, less pale livers”; the liver cholesterol entry is given as “modest increase”; the liver triglycerides entry is listed as “significant decrease”. In the data set on WD NASH model (setting [1]), the liver weight result is on record as “significant reductions”; the liver/body weight ratios entry was “significant reductions”; the “plasma lipids (triglyceride and cholesterol)” value is reported as “modest increase”; the “steatosis (liver histology, H&E)” value is given as “dramatically decreased steatosis”. Also, the “transaminitis (plasma ALT and AST)” value with WD NASH model (setting [1]) is “improved”. Moreover, the “fatty liver disease (overall effect)” value with WD NASH model (WD NASH model, AZ505 10 mg/kg i.p. 3 times per week, 2 months) was “ameliorates”. The tolerability of dose result in the data set with WD NASH model (mouse, in vivo) is on record as “well tolerated”. For “SMYD2 310: siRNA to human SMYD2; sense GGAGACUGUAAGACUAACAUU (SEQ 63), antisense UGUUAGUCUUACAGUCUCCUU (SEQ 120) (listed as RNA, chemistry not given here)”, the “% mRNA remaining (compared to Ctrl siRNA)” value (“% mRNA remaining” below) in the data set on human SMYD2 turned out to be 24.0%.

Turning to “SMYD2 416-438: siRNA to human SMYD2; sense GAUAAGUUAGACAAUGAGAAG (SEQ 73), antisense UCUCAUUGUCUAACUUAUCCA (SEQ 130) (listed as RNA, chemistry not given here)”, the “% mRNA remaining” value in the data set on human SMYD2 was determined as 28.5%. On to “SMYD2 493: siRNA to human SMYD2; sense CGGAUUCCCUGACAAUGAUUU (SEQ 66), antisense AUCAUUGUCAGGGAAUCCGUU (SEQ 123) (listed as RNA, chemistry not given here)”, for which the “% mRNA remaining” value in the data set with human SMYD2 came out at 20.0%. Consider “SMYD2 675: siRNA to human SMYD2; sense GAGCUGUACAGGAAAUCAAUU (SEQ 64), antisense UUGAUUUCCUGUACAGCUCUU (SEQ 121) (listed as RNA, chemistry not given here)”, for which the “% mRNA remaining” value in the data set on human SMYD2 amounted to 121.4%.

As for “SMYD2 706-728: siRNA to human SMYD2; sense GGUUUUUACCAGCUAUAUUGA (SEQ 70), antisense AAUAUAGCUGGUAAAAACCUC (SEQ 127) (listed as RNA, chemistry not given here)”, the “% mRNA remaining” value with human SMYD2 was 53.2%. Take “SMYD2 736: siRNA to human SMYD2; sense CCCAACGGAAGAUAGAAAUUU (SEQ 61), antisense AUUUCUAUCUUCCGUUGGGUU (SEQ 118) (listed as RNA, chemistry not given here)”: the “% mRNA remaining” value in the data set with human SMYD2 is 115.1%. Take “SMYD2 750-772: siRNA to human SMYD2; sense GAAAUGACCGGUUAAGAGAUU (SEQ 78), antisense UCUCUUAACCGGUCAUUUCUA (SEQ 135) (listed as RNA, chemistry not given here)”: the “% mRNA remaining” value in the data set with human SMYD2 was 26.5%. For “SMYD2 757: siRNA to human SMYD2; sense CCGGUUAAGAGAUUCUUAUUU (SEQ 59), antisense AUAAGAAUCUCUUAACCGGUU (SEQ 116) (listed as RNA, chemistry not given here)”, the “% mRNA remaining” value in the data set with human SMYD2 turned out to be 82.3%.

Regarding “SMYD2 758-780: siRNA to human SMYD2; sense CGGUUAAGAGAUUCUUAUUUC (SEQ 75), antisense AAUAAGAAUCUCUUAACCGGU (SEQ 132) (listed as RNA, chemistry not given here)”, the “% mRNA remaining” value with human SMYD2 is on record as 38.8%. “SMYD2 759-781: siRNA to human SMYD2; sense GGUUAAGAGAUUCUUAUUUCU (SEQ 71), antisense AAAUAAGAAUCUCUUAACCGG (SEQ 128) (listed as RNA, chemistry not given here)”: the “% mRNA remaining” value with human SMYD2 is 37.7%. Regarding “SMYD2 767-789: siRNA to human SMYD2; sense GAUUCUUAUUUCUUUACCUGU (SEQ 76), antisense AGGUAAAGAAAUAAGAAUCUC (SEQ 133) (listed as RNA, chemistry not given here)”, the “% mRNA remaining” value in the data set with human SMYD2 is reported as 46.4%. In the case of “SMYD2 894: siRNA to human SMYD2; sense CACGCAACGUCAUUGAAGAUU (SEQ 68), antisense UCUUCAAUGACGUUGCGUGUU (SEQ 125) (listed as RNA, chemistry not given here)”, the “% mRNA remaining” value with human SMYD2 is given as 18.3%. Regarding “SMYD2 1077: siRNA to human SMYD2; sense CCCUGCAAUAUGGACAGAAUU (SEQ 65), antisense UUCUGUCCAUAUUGCAGGGUU (SEQ 122) (listed as RNA, chemistry not given here)”, the “% mRNA remaining” value with human SMYD2 came out at 72.7%. For the compound “SMYD2 1078: siRNA to human SMYD2; sense CCUGCAAUAUGGACAGAAAUU (SEQ 62), antisense UUUCUGUCCAUAUUGCAGGUU (SEQ 119) (listed as RNA, chemistry not given here)”, in the data set on human SMYD2, the “% mRNA remaining” value is recorded as 107.5%. “SMYD2 1082-1104: siRNA to human SMYD2; sense CAAUAUGGACAGAAAAUCAUU (SEQ 74), antisense UGAUUUUCUGUCCAUAUUGCA (SEQ 131)”: in the data set on human SMYD2, the “% mRNA remaining” value is on record as 35.2%. For “SMYD2 1249: siRNA to human SMYD2; sense CGGCAAAGAUCAUCCAUAUUU (SEQ 60), antisense AUAUGGAUGAUCUUUGCCGUU (SEQ 117) (listed as RNA, chemistry not given here)”, in the data set on human SMYD2, the “% mRNA remaining” value is 110.9%. Consider “SMYD2 1251-1273: siRNA to human SMYD2; sense GCAAAGAUCAUCCAUAUAUUU (SEQ 77), antisense AUAUAUGGAUGAUCUUUGCCG (SEQ 134) (listed as RNA, chemistry not given here)”, for which, in the data set with human SMYD2, the “% mRNA remaining” value was 30.0%. For “SMYD2 1252-1274: siRNA to human SMYD2; sense CAAAGAUCAUCCAUAUAUUUC (SEQ 69), antisense AAUAUAUGGAUGAUCUUUGCC (SEQ 126) (listed as RNA, chemistry not given here)”, the “% mRNA remaining” value in the data set on human SMYD2 came out at 13.1%. With “SMYD2 1276-1298: siRNA to human SMYD2; sense GAUCAAACAGGAAAUUGAAAG (SEQ 72), antisense UUCAAUUUCCUGUUUGAUCUC (SEQ 129) (listed as RNA, chemistry not given here)”, the “% mRNA remaining” value with human SMYD2 is listed as 26.6%. On the same count and under the same terms, the result for “SMYDS 588: siRNA to human SMYD2; sense CAGCGAUAUUUCCUGAUGUUU (SEQ 67), antisense ACAUCAGGAAAUAUCGCUGUU (SEQ 124) (listed as RNA, chemistry not given here)” reads 26.3%.

What is called pIC50 is −log10 of the IC50, conventionally taken in molar units.
